These compounds were tested on IL-1b (assay: Mouse BMDM IL-1b Assay). Conditions: Macrophage; C57BL6 bone marrow derived macrophages; 200 ng/mL Ultrapure LPS-B5 3 hours, compound 30 minutes, 5 mM ATP 45 minutes; mouse IL-1b ELISA of supernatant.
Assay type: cell-based
Protocol: Example 8: Mouse BMDM IL-1b Assay
Mouse bone marrow cells from C57BL6 tibia and femur were culture in complete Isocov's Media supplemented with 20 ng/mL MCSF (BMDM media) at a density of 50 million cells/15 cm Petri dish. Fresh media was changed every 3 days, and bone marrow derived macrophages were collected, washed, and counted on day 7. Cells were seeded into 96 well plates at a density of 5×10^4 cells per well in 100 uL of BMDM media and cultured overnight. The cells were stimulated at 37° C. with 200 ng/mL Ultrapure LPS-B5 for 3 hours before pre-diluted compounds were added. 30 minutes after compound addition, 5 mM ATP was added for the secondary stimulation for 45 minutes. After stimulation, the plates were briefly spun down, and 50 uL of supernatant was harvested from each well. ELISA for mouse IL-1b was performed with 1:10 and 1:100 diluted supernatant using pre-coated kits. IL-1b concentrations were calculated based on pre-titrated standards, and compound inhibition IC50 is generated using the Levenberg Marquardt damped lease-square method.

`CC1(O)c2cc(S(=O)(=O)NC(=O)Nc3c4c(c(F)c5c3CCC5)CCC4)oc2C2CCC1C2` (centres unmarked) [Compound 30, N-((8-fluoro-1,2,3,5,6,7-hexahydro-s-indacen-4-yl)carbamoyl)-4-hydroxy-4-methyl-5,6,7,8-tetrahydro-4H-5,8-methanocyclohepta[b]furan-2-sulfonamide] and `C[C@@]1(O)c2cc(S(=O)(=O)NC(=O)Nc3c4c(cc5c3CCC5)CCC4)oc2C2CCC1CC2` [Compound 43, (S)-N-((1,2,3,5,6,7-hexahydro-s-indacen-4-yl)carbamoyl)-4-hydroxy-4-methyl-5,6,7,8-tetrahydro-4H-5,8-ethanocyclohepta[b]furan-2-sulfonamide] cannot be ordered by IC50: < 0.1 µM for the first, < 0.1 µM for the second.

`O=C(Nc1c2c(cc3c1CCC3)CCC2)NS(=O)(=O)c1ccc2c(c1)/C(=N\O)C1CCC2CC1` [Compound 35, (Z)-N-((1,2,3,5,6,7-hexahydro-s-indacen-4-yl)carbamoyl)-9-(hydroxyimino)-6,7,8,9-tetrahydro-5H-5,8-ethanobenzo[7]annulene-2-sulfonamide] and `O=C(Nc1c2c(cc3c1CCC3)CCC2)NS(=O)(=O)c1ccc2c(c1)C(O)C1CCC2CC1` (centres unmarked) [Compound 33, N-((1,2,3,5,6,7-hexahydro-s-indacen-4-yl)carbamoyl)-9-hydroxy-6,7,8,9-tetrahydro-5H-5,8-ethanobenzo[7]annulene-2-sulfonamide] fall in the same range of IC50: 0.1 to 1 µM for the first, 0.1 to 1 µM for the second.

`CC1(O)c2cc(S(=O)(=O)NC(=O)Nc3c4c(cc5c3CCC5)CCC4)sc2C2CCC1C2` (centres unmarked) [Compound 47, N-((1,2,3,5,6,7-hexahydro-s-indacen-4-yl)carbamoyl)-4-hydroxy-4-methyl-5,6,7,8-tetrahydro-4H-5,8-methanocyclohepta[b]thiophene-2-sulfonamide] and `CC1(O)c2cc(S(=O)(=O)NC(=O)Nc3c4c(cc5c3CCC5)CCC4)sc2C2CCC1CC2` (centres unmarked) [Compound 45, N-((1,2,3,5,6,7-hexahydro-s-indacen-4-yl)carbamoyl)-4-hydroxy-4-methyl-5,6,7,8-tetrahydro-4H-5,8-ethanocyclohepta[b]thiophene-2-sulfonamide] cannot be ordered by IC50: < 0.1 µM for the first, < 0.1 µM for the second.

First: CC(C)c1ccc(Cl)c(C(C)C)c1NC(=O)NS(=O)(=O)c1cc2c(o1)C1CCC(C1)C2O (centres unmarked) [Compound 25, N-((3-chloro-2,6-diisopropylphenyl)carbamoyl)-4-hydroxy-5,6,7,8-tetrahydro-4H-5,8-methanocyclohepta[b]furan-2-sulfonamide]
Second: CC(C)c1cccc(C(C)C)c1CC(=O)NS(=O)(=O)c1cc2c(o1)C1CCC(C1)C2O (centres unmarked) [Compound 15, 2-(2,6-diisopropylphenyl)-N-((4-hydroxy-5,6,7,8-tetrahydro-4H-5,8-methanocyclohepta[b]furan-2-yl)sulfonyl)acetamide]
The IC50 of the first is lower: 0.1 to 1 µM for the first, 1 to 10 µM for the second. The first is the more potent here.

Compared with `CC(C)c1cc(F)cc(C(C)C)c1NC(=O)NS(=O)(=O)c1cc2c(o1)C1CCC(C1)C2(C)O` (centres unmarked) [Compound 28, N-((4-fluoro-2,6-diisopropylphenyl)carbamoyl)-4-hydroxy-4-methyl-5,6,7,8-tetrahydro-4H-5,8-methanocyclohepta[b]furan-2-sulfonamide], `O=C(Nc1c2c(cc3c1CCC3)CCC2)NS(=O)(=O)c1cc2c(o1)C1CCC(C1)C2=NO` (centres unmarked) [Compound 11, N-((1,2,3,5,6,7-hexahydro-s-indacen-4-yl)carbamoyl)-4-(hydroxyimino)-5,6,7,8-tetrahydro-4H-5,8-methanocyclohepta[b]furan-2-sulfonamide] is lower in IC50: 0.1 to 1 µM for the first, < 0.1 µM for the second. The second is the more potent here.

`O=C(Nc1c2c(cc3c1CCC3)CCC2)NS(=O)(=O)c1cc2c(o1)C1CCC(CC1)C2O` (centres unmarked) [Compound 22, N-((1,2,3,5,6,7-hexahydro-s-indacen-4-yl)carbamoyl)-4-hydroxy-5,6,7,8-tetrahydro-4H-5,8-ethanocyclohepta[b]furan-2-sulfonamide] and `O=C(Nc1c2c(cc3c1CCC3)CCC2)NS(=O)(=O)c1cc2c(o1)[C@@H]1CC[C@@H](C1)C2O` (stereo partly drawn) [Compound 50, (5S,8R)-N-((1,2,3,5,6,7-hexahydro-s-indacen-4-yl)carbamoyl)-4-hydroxy-5,6,7,8-tetrahydro-4H-5,8-methanocyclohepta[b]furan-2-sulfonamide] cannot be ordered by IC50: < 0.1 µM for the first, < 0.1 µM for the second.

`O=C(Nc1c2c(c(Cl)c3c1CCC3)CCC2)NS(=O)(=O)c1cc2c(o1)C1CCC(C1)C2O` (centres unmarked) [Compound 19, N-((8-chloro-1,2,3,5,6,7-hexahydro-s-indacen-4-yl)carbamoyl)-4-hydroxy-5,6,7,8-tetrahydro-4H-5,8-methanocyclohepta[b]furan-2-sulfonamide] and `O=C(Nc1c2c(cc3c1CCC3)CCC2)NS(=O)(=O)c1cc2c(o1)C1CCC(C1)C2=O` (centres unmarked) [Compound 7, N-((1,2,3,5,6,7-hexahydro-s-indacen-4-yl)carbamoyl)-4-oxo-5,6,7,8-tetrahydro-4H-5,8-methanocyclohepta[b]furan-2-sulfonamide] cannot be ordered by IC50: < 0.1 µM for the first, < 0.1 µM for the second.
